Data taken from patent publication US6905841B2, “Enzymatic substrates for detecting Pseudomonas aeruginas” (Biomerieux S.A., priority 1999, dated 2005).
Read-outs that look alike come from different tables or passages of the source.

Columns and labels:
[1] = test system: β-alanine aminopeptidase; experiment: APIZYM-type test strips with β-alanyl-β-naphthylamide; format: cell-based; details: Oligella ureolytica; 2 strains
[2] = test system: β-alanine aminopeptidase; experiment: as above; format: cell-based; details: Citrobacter diversus; five strains
[3] = test system: β-alanine aminopeptidase; experiment: as above; format: cell-based; details: Pseudomonas aeruginosa; five strains
[4] = test system: β-alanine aminopeptidase; experiment: as above; format: cell-based; details: Empedobacter brevis; 3 strains
[5] = test system: β-alanine aminopeptidase; experiment: as above; format: cell-based; details: Pasteurella gallinarum; 1 strain
[6] = test system: β-alanine aminopeptidase; experiment: as above; format: cell-based; details: Salmonella spp.; five strains
[7] = test system: β-alanine aminopeptidase; experiment: as above; format: cell-based; details: Providencia alcalifaciens; five strains
[8] = test system: β-alanine aminopeptidase; experiment: as above; format: cell-based; details: proches de Pasteurella; 4 strains
[9] = test system: β-alanine aminopeptidase; experiment: as above; format: cell-based; details: Pseudomonas putida; five strains
[10] = test system: β-alanine aminopeptidase; experiment: as above; format: cell-based; details: Achroniobacter xylosoxidans spp. denitrificans; five strains
[11] = test system: β-alanine aminopeptidase; experiment: as above; format: cell-based; details: Psychrobacter phenylpyruvicus; 4 strains
[12] = test system: β-alanine aminopeptidase; experiment: as above; format: cell-based; details: Ralstonia picketti; five strains
[13] = test system: β-alanine aminopeptidase; experiment: as above; format: cell-based; details: Enterobacter sakazakii; five strains
[14] = test system: β-alanine aminopeptidase; experiment: as above; format: cell-based; details: Moraxella lacunata; 4 strains
[15] = test system: β-alanine aminopeptidase; experiment: as above; format: cell-based; details: Stenotrophomonas maltophilia; five strains
[16] = test system: β-alanine aminopeptidase; experiment: as above; format: cell-based; details: Aeromonas hydrophila; five strains
[17] = test system: β-alanine aminopeptidase; experiment: as above; format: cell-based; details: Pseudomonas alcaligenes; five strains
[18] = test system: β-alanine aminopeptidase; experiment: as above; format: cell-based; details: Chryseobacterium indologenes; five strains
[19] = test system: β-alanine aminopeptidase; experiment: as above; format: cell-based; details: Comamonas testosteroni; five strains
[20] = test system: β-alanine aminopeptidase; experiment: as above; format: cell-based; details: Alcaligenes faecalis/odorans; five strains
[21] = test system: β-alanine aminopeptidase; experiment: as above; format: cell-based; details: Moraxella non liquefaciens; 13 strains
[22] = test system: β-alanine aminopeptidase; experiment: as above; format: cell-based; details: Pasteurella aerogenes; five strains
[23] = test system: β-alanine aminopeptidase; experiment: as above; format: cell-based; details: Pseudomonas mendocina; five strains
[24] = test system: β-alanine aminopeptidase; experiment: as above; format: cell-based; details: Providencia stuartii; five strains
[25] = test system: β-alanine aminopeptidase; experiment: as above; format: cell-based; details: Proteus vulgaris; five strains
[26] = test system: β-alanine aminopeptidase; experiment: as above; format: cell-based; details: Citrobacter freundii; five strains
[27] = test system: β-alanine aminopeptidase; experiment: as above; format: cell-based; details: Enterobacter gergoviae; five strains
[28] = test system: β-alanine aminopeptidase; experiment: as above; format: cell-based; details: Salmonella arizonae; five strains
[29] = test system: β-alanine aminopeptidase; details: Enterobacter cloacae; 2 strains tested; read after 22 to 24 hours
[30] = test system: β-alanine aminopeptidase; details: Pseudomonas mendocina; 1 strain tested; read after 22 to 24 hours
[31] = test system: β-alanine aminopeptidase; details: Klebsiella oxytoca; 2 strains tested; read after 22 to 24 hours
[32] = test system: β-alanine aminopeptidase; details: Citrobacter freundii; 2 strains tested; read after 22 to 24 hours
[33] = test system: β-alanine aminopeptidase; format: cell-based; details: Ochrobactrum anthropi; 1 strain tested; read after 22 to 24 hours
[34] = test system: β-alanine aminopeptidase; details: Pseudomonas putida; 1 strain tested; read after 22 to 24 hours
[35] = test system: β-alanine aminopeptidase; details: Pseudomonas stutzeri; 3 strains tested; read after 22 to 24 hours
[36] = test system: β-alanine aminopeptidase; details: Citrobacter koseri; 1 strain tested; read after 22 to 24 hours
[37] = test system: β-alanine aminopeptidase; details: Enterobacter aerogenes; 2 strains tested; read after 22 to 24 hours
[38] = test system: β-alanine aminopeptidase; details: Serratia marcescens; 3 strains tested; read after 22 to 24 hours
[39] = test system: β-alanine aminopeptidase; details: Shewanella algae; 1 strain tested; read after 22 to 24 hours

Compound: β-alanyl-β-naphthylamide
- β-alanine aminopeptidase activity, result [1]: negative
- β-alanine aminopeptidase activity, result [2]: negative
- β-alanine aminopeptidase activity, result [3]: positive
- β-alanine aminopeptidase activity, result [4]: negative
- β-alanine aminopeptidase activity, result [5]: negative
- β-alanine aminopeptidase activity, result [6]: negative
- β-alanine aminopeptidase activity, result [7]: negative
- β-alanine aminopeptidase activity, result [8]: negative
- β-alanine aminopeptidase activity, result [9]: negative
- β-alanine aminopeptidase activity, result [10]: negative
- β-alanine aminopeptidase activity, result [11]: negative
- β-alanine aminopeptidase activity, result [12]: negative
- β-alanine aminopeptidase activity, result [13]: negative
- β-alanine aminopeptidase activity, result [14]: negative
- β-alanine aminopeptidase activity, result [15]: negative
- β-alanine aminopeptidase activity, result [16]: negative
- β-alanine aminopeptidase activity, result [17]: negative
- β-alanine aminopeptidase activity, result [18]: negative
- β-alanine aminopeptidase activity, result [19]: negative
- β-alanine aminopeptidase activity, result [20]: negative
- β-alanine aminopeptidase activity, result [21]: negative
- β-alanine aminopeptidase activity, result [22]: negative
- β-alanine aminopeptidase activity, result [23]: positive
- β-alanine aminopeptidase activity, result [24]: negative
- β-alanine aminopeptidase activity, result [25]: negative
- β-alanine aminopeptidase activity, result [26]: negative
- β-alanine aminopeptidase activity, result [27]: negative
- β-alanine aminopeptidase activity, result [28]: negative

Compound: NCCC(=O)c1c(N)cc(Cl)c(O)c1Cl
- Number of negative results [29]: 2
- Number positive results [29]: 0
- Number of negative results [30]: 0
- Number positive results [30]: 1
- Number of negative results [31]: 2
- Number positive results [31]: 0
- Number of negative results [32]: 2
- Number positive results [32]: 0
- Number of negative results [33]: 0
- Number positive results [33]: 1
- Number of negative results [34]: 1
- Number positive results [34]: 0
- Number of negative results [35]: 3
- Number positive results [35]: 0
- Number of negative results [36]: 1
- Number positive results [36]: 0
- Number of negative results [37]: 2
- Number positive results [37]: 0
- Number of negative results [38]: 0
- Number positive results [38]: 3
- Number of negative results [39]: 1
- Number positive results [39]: 0
